Experimental data: patent publication US9718790B2, “Triazine derivative and pharmaceutical composition having an analgesic activity comprising the same” (SHIONOGI & CO., LTD., priority 2010, dated 2017)

Assays:
[1] = Solubility test (1% DMSO, artificial intestinal juice pH 6.8); format: physicochemical; settings: artificial intestinal juice pH 6.8 with 1% DMSO, 25 °C, fassgf or other biorelevant, kinetic from dmso stock, artificial intestinal juice pH 6.8, 25 degrees Celsius
Description: 10 mmol/L compound solution was prepared using DMSO, and then 6 μL of the compound solution was added to 594 μL of artificial intestinal juice in pH 6.8 (to 250 mL of 0.2 mol/L potassium dihydrogen phosphate reagent solution was added 118 mL of 0.2 mol/L NaOH reagent solution and water to provide a final volume of 1000 mL). After standing at 25 degrees Celsius for 16 hours, the mixed solution was filtrated with suction. The filtrate was diluted twice with methanol/water ( 1/1) and then a concentration in the filtration was measured with HPLC or LC/MS/MS by the absolute calibration method.

[2] = target: rat P2X3 receptor (Rattus norvegicus (Rat), UniProt P49654); test: Evaluation of rat P2X3 receptor inhibitory activity (Fluo-3 calcium fluorescence, FDSS 3000, ATP stimulation); format: cell-based
Description: Rat P2X3 receptor gene (GenBank accession number NM_031075) was expressed in C6BU-1 cell. The cells stably expressing rat P2X3 were seeded in a 96-well microtiter plate at a concentration of 8000 cells/well and cultured in the medium (8.3% fetal bovine serum. 8.3% horse serum, 1% antibiotic and antifungal in DMEM) for one day at 37° C. under 5% carbon dioxide atmosphere. In transiently expressing system, the C6BU-1 cells were seeded in a […] at a concentration of 2500 cells/well and cultured in the medium for one day at 37° C. under 5% carbon dioxide atmosphere. The plasmid was transfected into the cells using transfection reagent FuGENE6 (Roche). The transfected cells were cultured in the medium for one day at 37° C. under 5% carbon dioxide atmosphere. […] Measurement of fluorescence intensity by FDSS 3000 was started, and 40 μL of DMSO solutions containing different concentrations of the test compound as prepared by dilution with dilution buffer (20 mM HEPES, 137 mM NaCl, 2.7 mM KCl, 0.9 mM MgCl2, 5.0 mM CaCl2, 5.6 mM D-glucose, 2.5 mM probenecid, 0.1% Pluronic F-127, pH 7.5) were dispensed to each well through the built-in automatic dispenser. Five minutes after, […] ATP solution (50 μL) prepared by dilution with the dilution buffer was dispensed through the built-in automatic dispenser, and the measurement of fluorescence intensity was continued for 3 min. For each well, the specific maximum fluorescence intensity was calculated as the ratio of the maximum fluorescence intensity after addition of the ATP solution to the fluorescence intensity at the starting of the measurement. […] FDSS software (Hamamatsu Photonics K.K.) was used for calculation of the specific maximum fluorescence intensity. IC50 was calculated using Microsoft Excel (Microsoft Corporation) and XLfit (idbs Ltd.).

[3] = target: CYP2D6 (Homo sapiens (Human), UniProt P10635); test: CYP inhibition test, pooled human hepatic microsome, dextromethorphan O-demethylation; format: in vitro ADME; settings: substrate dextromethorphan
Description: (§1) Using commercially available pooled human hepatic microsome, and employlng, as markers, 7-ethoxyresorufin O-deethylation (CYP1A2), tolbutamide methyl-hydroxylation (CYP2C9), mephenyloin 4′-hydroxylation (CYP2C19), dextromethorphan O-demethylation (CYP2D6), and terfenedine hydroxylation as typical substrate metabolism reactions of human main five CYP enzyme forms (CYP1A2, 2C9, 2C19, 2D6, 3A4), an inhibitory degree of each metabolite production amount by a test compound was assessed.
(§2) The reaction conditions were as follows: substrate, 0.5 μmol/L ethoxyresorufin (CYP1A2), 100 μmol/L tolbutamide (CYP2C9), 50 μmol/L S-mephenitoin (CYP2C19), 5 μmol/L dextromethorphan (CYP2D6), 1 μmol/L terfenedine (CYP3A4) reaction time, 15 minutes; reaction temperature, 37° C; enzyme, pooled human hepatic microsome 0.2 mg protein/mL; test drug concentration, 1.0, 5.0, 10, 20 μmol/L (four points).
(§3) Each five kinds of substrates, human hepatic microsome, or a test drug in 50 mmol/L Hepes buffer as a reaction solution was added to a 96-well plate at the composition as described above, NADPH, as a cofactor was added to initiate metabolism reactions as markers and, after the incubation at 37° C. for 15 minutes, a methanol/acetonitrile=1/1 (v/v) solution was added to stop the reaction. After the centrifugation at 3000 rpm for 15 minutes, resorufin (CYP1A2 metabolite) in the supernatant was quantified by a fluorescent multilabel counter and tributamide hydroxide (CYP2CP metabolite), mephenyloin 4′ hydroxide (CYP2C19 metabolite), […] (CYP2D6 metabolite), and terfenadine alcohol (CYP3A4 metabolite) were quantified by LC/MS/MS.

[4] = target: CYP3A4 (Homo sapiens (Human), UniProt P08684); test: CYP inhibition test, pooled human hepatic microsome, terfenedine hydroxylation; format: in vitro ADME; settings: substrate terfenedine
Description: as §1, §2, §3

[5] = Bioavailability (BA) test; format: in vivo; settings: plasma; mice or SD rats, oral vs intravenous AUC
Description: (1) Animals: Mice or SD rats were used
(2) Breeding conditions: Mice or SD rats were allowed to freely take solid food and sterilized tap water.
(3) Dose and grouping: orally or intravenously administered at a predetermined dose; grouping was as follows (Dose depends one the compound) • Oral administration: 0.3 to 30 mg/kg (n=2 to 3) • Intravenous administration: 0.5 to 10 mg/kg (n=2 to 3)
(4) Preparation of dosing solution: for oral administration, in a solution or a suspension state: for intravenous administration, in a solubilized state
(5) Administration method: in oral administration, forcedly administer into ventriculus with oral probe; in intravenous administration, administer from caudal vein with a needle-equipped syringe
(6) Evaluation items: blood was collected over time, and the plasma concentration of drug was measured by LC/MS/MS
(7) Statistical analysis: regarding the transition of the plasma concentration or the present compound, the area under the plasma concentration-time curve (AUC) was calculated by non-linear least squares program WinNonlin (Registered trade name), and the bioavailability (BA) was calculated the AUCs of the oral administration group and intravenous administration group

Chain of rat P2X3 receptor (P49654 whole entry): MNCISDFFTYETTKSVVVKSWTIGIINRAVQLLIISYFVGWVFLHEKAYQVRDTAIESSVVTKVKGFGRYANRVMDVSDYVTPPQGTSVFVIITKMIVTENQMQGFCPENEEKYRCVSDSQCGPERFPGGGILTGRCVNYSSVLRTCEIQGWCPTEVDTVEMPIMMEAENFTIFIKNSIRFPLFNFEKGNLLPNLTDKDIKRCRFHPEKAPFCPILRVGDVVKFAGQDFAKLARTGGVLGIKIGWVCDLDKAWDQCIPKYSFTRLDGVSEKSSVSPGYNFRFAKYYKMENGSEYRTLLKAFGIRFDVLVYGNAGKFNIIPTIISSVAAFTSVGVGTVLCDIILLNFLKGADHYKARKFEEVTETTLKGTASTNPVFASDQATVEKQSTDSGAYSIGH
Chain of CYP2D6 (P10635 whole entry): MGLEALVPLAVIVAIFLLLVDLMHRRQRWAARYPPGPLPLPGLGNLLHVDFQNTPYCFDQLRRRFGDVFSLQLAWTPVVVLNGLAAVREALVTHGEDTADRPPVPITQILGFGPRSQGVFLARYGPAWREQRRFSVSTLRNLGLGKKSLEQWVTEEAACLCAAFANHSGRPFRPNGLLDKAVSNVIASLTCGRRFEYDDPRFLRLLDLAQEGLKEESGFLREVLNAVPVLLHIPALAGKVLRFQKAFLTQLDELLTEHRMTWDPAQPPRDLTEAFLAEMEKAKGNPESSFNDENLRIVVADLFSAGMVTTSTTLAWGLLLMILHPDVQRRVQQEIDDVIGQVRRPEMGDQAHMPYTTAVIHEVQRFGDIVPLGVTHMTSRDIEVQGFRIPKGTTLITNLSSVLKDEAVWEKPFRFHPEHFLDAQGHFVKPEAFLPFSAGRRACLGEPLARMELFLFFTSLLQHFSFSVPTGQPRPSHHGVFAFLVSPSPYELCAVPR
Chain of CYP3A4 (P08684 whole entry): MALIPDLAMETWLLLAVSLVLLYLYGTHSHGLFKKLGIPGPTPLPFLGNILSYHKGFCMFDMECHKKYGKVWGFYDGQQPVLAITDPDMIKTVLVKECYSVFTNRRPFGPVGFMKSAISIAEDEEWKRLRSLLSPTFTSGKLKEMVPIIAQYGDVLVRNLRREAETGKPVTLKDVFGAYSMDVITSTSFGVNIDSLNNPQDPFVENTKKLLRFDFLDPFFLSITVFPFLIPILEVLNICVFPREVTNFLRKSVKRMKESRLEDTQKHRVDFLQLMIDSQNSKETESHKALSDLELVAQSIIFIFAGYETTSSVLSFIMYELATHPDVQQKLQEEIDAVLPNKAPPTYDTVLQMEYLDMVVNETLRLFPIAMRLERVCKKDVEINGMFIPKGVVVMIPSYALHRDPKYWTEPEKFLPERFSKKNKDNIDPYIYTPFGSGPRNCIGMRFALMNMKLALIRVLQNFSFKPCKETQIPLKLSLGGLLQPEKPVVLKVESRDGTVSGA

Structure (SMILES) | solubility at 16 h [1] | IC50 [2] | IC50 [3] | IC50 [4] | bioavailability [5]
C[C@@H](Cn1c(=O)[nH]/c(=N\c2ccc(OCC3CC3)cc2)n(Cc2ccc(Cl)cc2)c1=O)C(=O)O [Compound I-0837] | > 50 µM | 0.019 µM | > 20 µM | > 20 µM | 46%
CCn1c(=O)[nH]/c(=N\c2ccc(Oc3ccnc(C(=O)O)c3)cc2)n(Cc2ccc(Cl)cc2)c1=O [Compound I-1788] | > 50 µM | 0.005 µM | > 20 µM | > 20 µM | 31%
O=c1[nH]/c(=N\c2ccc(Oc3ccon3)cc2)n(Cc2ccc(Cl)cc2)c(=O)n1CC(CO)CO [Compound I-2291] | > 50 µM | 0.003 µM | > 20 µM | > 20 µM | 83%
